What follows are molecules tested against T1, human KV 1.5 (IKur) (Homo sapiens, UniProt P22460) (assay: block of IKur current in patch clamped L-929 cells expressing human Kv1.5). Conditions: 0.3 μM; patch clamped mammalian L-929 cells stably expressing human Kv1.5.
T1 construct: expressed in transfected cells
Type: cell-based

T1 sequence (P22460 whole entry): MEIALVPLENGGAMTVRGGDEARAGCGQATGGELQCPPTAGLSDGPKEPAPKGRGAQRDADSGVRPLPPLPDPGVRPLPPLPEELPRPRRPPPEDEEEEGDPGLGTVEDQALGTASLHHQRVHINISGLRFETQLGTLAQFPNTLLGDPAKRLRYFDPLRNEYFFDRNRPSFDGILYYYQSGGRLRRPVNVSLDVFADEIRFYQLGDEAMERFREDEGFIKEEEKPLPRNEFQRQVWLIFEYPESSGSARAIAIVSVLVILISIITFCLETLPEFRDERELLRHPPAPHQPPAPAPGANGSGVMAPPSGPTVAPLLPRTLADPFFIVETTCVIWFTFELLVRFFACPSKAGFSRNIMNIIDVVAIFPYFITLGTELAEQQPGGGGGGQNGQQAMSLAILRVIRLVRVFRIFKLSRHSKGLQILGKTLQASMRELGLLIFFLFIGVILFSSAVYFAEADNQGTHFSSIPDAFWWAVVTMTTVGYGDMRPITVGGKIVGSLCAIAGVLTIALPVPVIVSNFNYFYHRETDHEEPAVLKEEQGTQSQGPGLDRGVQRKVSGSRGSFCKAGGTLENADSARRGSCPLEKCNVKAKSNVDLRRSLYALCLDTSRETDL

KV1_5% Inh L929 @0.3 μM [%]	Structure (SMILES)
90.60	OCC(O)c1cncc(-c2nc(NCc3ccccc3)c3c(-c4ccccc4)ccn3n2)c1 (centres unmarked) [Example 14, 1-(5-(4-(Benzylamino)-5-phenylpyrrolo[1,2-f][1,2,4]triazin-2-yl)pyridin-3-yl)ethane-1,2-diol]

Same assay, conditions: L929, 0.3 μM; patch clamped mammalian L-929 cells stably expressing human Kv1.5; read-out: KV1_5% Inh L929 @0.3 μM

Structure (SMILES)	inhibition at 0.3 µM [%]
COc1ncc(-c2nc(N3Cc4cccnc4C3)c3c(-c4ccccc4)ccn3n2)cc1S(N)(=O)=O [Example 40, 2-Methoxy-5-(5-phenyl-4-(5H-pyrrolo[3,4-b]pyridin-6(7H)-yl)pyrrolo[1,2-f][1,2,4]triazin-2-yl)pyridine-3-sulfonamide]	40.4
CCOc1ncc(-c2nc(NCc3ccccn3)c3c(-c4ccccc4)ccn3n2)cc1S(N)(=O)=O [Example 134, 2-ethoxy-5-(5-phenyl-4-((pyridin-2-ylmethyl)amino)pyrrolo [2,1-f][1,2,4]triazin-2-yl)pyridine-3-sulfonamide]	95
NC(=O)c1ccc(NC(=O)c2nc(NCc3ccccc3)c3c(-c4ccccc4)ccn3n2)cc1 [Example 115, 4-(benzylamino)-N-(4-carbamoylphenyl)-5-phenylpyrrolo [1,2-f][1,2,4] triazine-2-carboxamide]	90
COC(=O)NC1(c2nc(NCc3ccccn3)c3c(-c4ccccc4)ccn3n2)CC1 [Example 35, Methyl 1-(5-phenyl-4-(pyridin-2-ylmethylamino)pyrrolo[1,2-f][1,2,4]triazin-2-yl)cyclopropylcarbamate]	92.8
N#Cc1ccc(-c2ccn3nc(-c4cncc(S(N)(=O)=O)c4)nc(NCc4ccccn4)c23)cc1 [Example 107, 5-(5-(-4-cyanophenyl)-4-(pyridin-2-ylmethylamino)pyrrolo[1,2-f][1,2,4]triazin-2-yl)pyridine-3-sulfonamide]	15.6
OCC(O)c1cncc(-c2nc(NCc3ccccc3)c3c(-c4ccccc4)ccn3n2)c1 (centres unmarked) [Example 14, 1-(5-(4-(Benzylamino)-5-phenylpyrrolo[1,2-f][1,2,4]triazin-2-yl)pyridin-3-yl)ethane-1,2-diol]	95
Nc1cncc(-c2nc(NCc3ncccn3)c3c(-c4ccccc4)ccn3n2)c1 [Example 162, 2-(5-aminopyridin-3-yl)-5-phenyl-N-(pyrimidin-2-ylmethyl)pyrrolo[2,1-f] [1,2,4]triazin-4-amine]	95.6

Second part, the molecule after the results:

inhibition at 0.3 µM [%]	Structure (SMILES)
96.4	NS(=O)(=O)c1cncc(-c2nc(NC3CCCc4cccnc43)c3c(-c4ccccc4)ccn3n2)c1 (centres unmarked) [Example 170, 5-(5-phenyl-4-((5,6,7,8-tetrahydroquinolin-8-yl)amino)pyrrolo[2,1-f] [1,2,4]triazin-2-yl)pyridine-3-sulfonamide]
90.3	NS(=O)(=O)c1cncc(-c2nc(NCc3ccncn3)c3c(-c4ccccc4)ccn3n2)c1 [Example 165, 5-(5-phenyl-4-((pyrimidin-4-ylmethyl)amino)pyrrolo [2,1-f][1,2,4]triazin-2-yl)pyridine-3-sulfonamide]
62.2	NC(=O)c1ccccc1CNc1nc(-c2cncc(S(N)(=O)=O)c2)nn2ccc(-c3ccccc3)c12 [Example 169, 2-(((5-phenyl-2-(5-sulfamoylpyridin-3-yl)pyrrolo[2,1-f][1,2,4]triazin-4-yl)amino)methyl) benzamide]
97	CCOC(=O)Nc1cncc(-c2nc(NCc3ccccn3)c3c(-c4ccccc4)ccn3n2)c1 [Example 59, ethyl 5-(5-phenyl-4-(pyridin-2-ylmethylamino)pyrrolo[1,2-f][1,2,4]triazin-2-yl)pyridin-3-ylcarbamate]
98.6	NC(=O)C(=O)Nc1cncc(-c2nc(NCc3ccccn3)c3c(-c4ccccc4)ccn3n2)c1 [Example 31, N1-(5-(5-Phenyl-4-(pyridin-2-ylmethylamino)pyrrolo[1,2-f][1,2,4]triazin-2-yl)pyridin-3-yl)oxalamide]
90.9	CS(=O)(=O)Nc1cncc(-c2nc(NCC3CCCCC3)c3c(-c4ccccc4)ccn3n2)c1 [Example 75, N-(5-(4-(cyclohexylmethylamino)-5-phenylpyrrolo[1,2-f] [1,2,4]triazin-2-yl)pyridin-3-yl)methanesulfonamide]

Reference: patent publication US9050345B2, “Pyrrolotriazines as potassium ion channel inhibitors” (BRISTOL-MYERS SQUIBB COMPANY, priority 2013, dated 2015)
